Holding throughout (format): functional, cell-based
For assay [1], the system named is A549. Description: Cytotoxicity against human A549 cells by MTT assay.
Assay [2] relates to MCF7. As to the kind of experiment: Growth inhibition of human MCF7 cells after 48 hrs by MTT assay. On the technique in general: Tetrazolium assays rely on reduction of a dye to a coloured formazan, in cell work by metabolically active cells.
For assay [3], the system named is A549. As to the kind of experiment: Growth inhibition of human A549 cells after 48 hrs by MTT assay.
Assay [4] relates to HepG2. Description: Cytotoxicity against human HepG2 cells by MTT assay.
Assay [5] relates to Hep 3B2. As to the kind of experiment: Growth inhibition of human Hep3B cells after 48 hrs by MTT assay.
Assay [6] relates to HepG2. Description: Growth inhibition of human HepG2 cells after 48 hrs by MTT assay.
The test system of assay [7] is MCF7. Description: Cytotoxicity against human MCF7 cells by MTT assay.
Assay [8] concerns Hep 3B2. Description: Cytotoxicity against human Hep3B cells by MTT assay.

A word on the pIC50: it is the IC50 on a negative log10 scale, so that one unit is a factor of ten. Read a high pIC50 as a small IC50.

pIC50: −log10 of the molar value.

In the case of `CC1(C)C=Cc2c([C@@H]3CCc4ccc(O)cc4O3)ccc(O)c2O1`, the pIC50 is under 4.00 in the assay with A549 [1], under 4.00 in the assay on HepG2 [4], under 4.00 in the assay with MCF7 [7] and 4.12 in the assay with Hep 3B2 [8]. Also, the “growth inhibition (GI)” value in the assay on MCF7 [2], in the assay on A549 [3], in the assay on Hep 3B2 [5] and with HepG2 [6] was “Dose-dependent effect” throughout.

In the case of `CC1(C)CCc2c([C@H]3CCc4ccc(O)cc4O3)ccc(O)c2O1`, the negative logarithm of the IC50 (pIC50) in the assay on A549 [1] is under 4.00; with HepG2 [4], under 4.00; in the assay on MCF7 [7], under 4.00; with Hep 3B2 [8] it was 4.38. The “growth inhibition (GI)” value in the assay with MCF7 [2], in the assay with A549 [3], in the assay on Hep 3B2 [5] and in the assay with HepG2 [6] was “Dose-dependent effect” each time.

Turning to `CC1(C)C=Cc2c([C@H]3CCc4ccc(O)cc4O3)ccc(O)c2O1`, the pIC50 is under 4.00 in the assay with A549 [1], under 4.00 in the assay with HepG2 [4], under 4.00 in the assay on MCF7 [7] and 4.20 with Hep 3B2 [8]. Moreover, the “growth inhibition (GI)” value in the assay with MCF7 [2], in the assay on A549 [3], with Hep 3B2 [5] and in the assay on HepG2 [6] was “Dose-dependent effect” each time.

As to `CC1(C)C=Cc2c(C3CCc4ccc(O)cc4O3)ccc(O)c2O1` (racemic), the pIC50 was under 4.00 in the assay with A549 [1], 4.03 in the assay on HepG2 [4], under 4.00 in the assay with MCF7 [7] and 4.24 with Hep 3B2 [8]. Further, the “growth inhibition (GI)” value in the assay with MCF7 [2], in the assay with A549 [3], with Hep 3B2 [5] and in the assay with HepG2 [6] was “Dose-dependent effect” in each case.

For the compound `CC(C)=CCc1c(C2CCc3ccc(O)cc3O2)cc2c(c1O)OC(C)(C)C=C2` (racemic), the pIC50 in the assay with A549 [1] is 4.03; in the assay with HepG2 [4] it was 4.03; with MCF7 [7], under 4.00; in the assay with Hep 3B2 [8] it was 4.01. In addition, the “growth inhibition (GI)” value in the assay on MCF7 [2], in the assay on A549 [3], in the assay on Hep 3B2 [5] and with HepG2 [6] was “Dose-dependent effect” throughout.

For `CC(C)=CCc1c(C2CCc3ccc(O)cc3O2)ccc(O)c1O` (racemic), the pIC50 in the assay on A549 [1] is under 4.00; in the assay with HepG2 [4] it was under 4.00; in the assay on MCF7 [7], under 4.00; in the assay with Hep 3B2 [8], 4.09. Also, the “growth inhibition (GI)” value with MCF7 [2], in the assay with A549 [3], in the assay on Hep 3B2 [5] and with HepG2 [6] was “Dose-dependent effect” throughout.

With `CC(C)=CCc1c([C@H]2CCc3ccc(O)cc3O2)ccc(O)c1O` [KAZINOL U], the negative logarithm of the IC50 (pIC50) was under 4.00 in the assay with A549 [1], under 4.00 in the assay on HepG2 [4], under 4.00 with MCF7 [7] and 4.29 in the assay on Hep 3B2 [8]. Further, the “growth inhibition (GI)” value in the assay with MCF7 [2], in the assay on A549 [3], in the assay on Hep 3B2 [5] and in the assay with HepG2 [6] was “Dose-dependent effect” throughout.
